Data published in patent publication US7070778B2, “Therapeutical combination against cancer” (Laboratoire Goemar SA, priority 2003, dated 2006).

Tested on: BT-474 human breast carcinoma
Experiment: Effect on the tumor growth: BT-474 human breast carcinoma xenograft in nude mice
Assay type: in vivo
Settings: for Average daily weight of the tumor: Group 6: Paclitaxel 16 mg/kg i.p. once a day for 5 days
Procedure: Female nude mice (nulnu) between 5 and 6 weeks of age weighing approximately 20 g were obtained from Harlan, Inc. (Madison, Wis.). The BT-474 human breast carcinoma cell line was obtained from the American Type Culture Collection (ATCC). BT-474 was established by E. Lasfargues and W. G. Coutinho from a solid carcinoma of the breast obtained from a patient (2). Twenty-one-day release 17β-estradiol pellets at 0.25 mg (Innovative Research of America) were implanted subcutaneously into each mouse. The following day, animals were implanted s.c. by trocar with fragments of human tumor carcinomas harvested from s.c. growing tumors in nude mice hosts. When the tumors were approximately 40 mg in size (24 days following inoculation), the animals were pair-matched into treatment and control groups. All of the groups contained 9 mice. All of the animals were ear-tagged and followed individually throughout the experiment.
The mice of each group were administered intra peritoneally with 2 ml of the following composition:
Group 1: (control) sterile H2O, 5 times a day
Mice were weighed twice weekly, and tumor measurements were obtained using calipers twice weekly, starting on Day 1. These tumor measurements were converted to mg tumor weight by the standard formula, (W^2×L)/2 (2). The experiment was terminated when the control group tumor size reached an average of 500 mg. Upon termination (Day 46), the mice were weighed, sacrificed and their tumors were excised. The tumors were weighed, and the mean tumor weight per group was calculated.
With this agent, the final weight of a given tumor was subtracted from its own weight at the start of treatment on Day 1. This difference was divided by the initial tumor weight to give the % regression. A mean % tumor regression was calculated from data from mice in a group that experienced tumor regressions.

CC(=O)O[C@H]1C(=O)[C@@]2(C)[C@H]([C@H](OC(=O)c3ccccc3)[C@]3(O)C[C@H](OC(=O)[C@H](O)[C@@H](NC(=O)c4ccccc4)c4ccccc4)C(C)=C1C3(C)C)[C@]1(OC(C)=O)CO[C@@H]1C[C@@H]2O [Paclitaxel]
tumor regression (in words) (Paclitaxel 16 mg/kg i.p. once a day for 5 days): caused tumor regression | Average daily weight of the tumor (day 5): 3906 mg | Average daily weight of the tumor (day 9): 54.2 mg | Average daily weight of the tumor (day 16): 77.3 mg | Average daily weight of the tumor (day 19): 79.4 mg | Average daily weight of the tumor (day 23): 108.0 mg | Average daily weight of the tumor (day 26): 123.8 mg | Average daily weight of the tumor (day 29): 149.5 mg | Average daily weight of the tumor (day 32): 188.8 mg | Average daily weight of the tumor (day 36): 220.3 mg | Average daily weight of the tumor (day 39): 244.8 mg | Average daily weight of the tumor (day 43): 299.6 mg | Average daily weight of the tumor (day 46): 376.3 mg
